Experimental data as given in patent publication US20240366555A1, “SELECTIVE MTORC2 INHIBITOR AND USES THEREOF” (ALIAD BIOPHARMA, priority 2021, published 2024).
pIC50: −log10 of the molar value. Read-outs that look alike come from different tables or passages of the source.

What was measured:
[1] = tested on: normal mice; assay: Y-type maze test in normal mice; type: in vivo; details: 5 mg/kg intraperitoneally, FIG. 14a
Description: A Y-maze was performed in a Y-shaped structure maze made of black acrylic material in which an angle of each arm was 120°, and a light and a cam were installed on the ceiling, and it was checked that white mice entered each arm while the surroundings were covered with a curtain. Through this, short-term memory was analyzed. In order to adapt mice to the environment, they were acclimated to the experimental space for 30 minutes. The mice were placed at one end of the maze and allowed to move freely for 12 minutes. Accuracy was measured by dividing time into 8 minutes, 10 minutes and 12 minutes. When the four paws of the mice entered the entrance, it was considered as completely entered. The percentage of accuracy was calculated as the number of times which a mouse entered each maze without repetition. […]
In order to verify this possibility, the efficacy of athyriol on memory ability and sociability of normal animals was investigated. A vehicle (30% DMSO) or athyriol was intraperitoneally injected at a dose of 5 mg/kg into normal mice (n=10), and from the 7th day after administration, the memory ability was evaluated by the same method as the Y-type maze test of Experimental example 1-2, and the sociability was evaluated by the same method as the 3 chamber test of Experimental example 1-6.

[2] = tested on: Pten KO mice; assay: Passive avoidance test in Pten KO mice; type: in vivo; details: FIG. 1b
Description: As Pten KO mice, Ptenf/f_cre/cre KO mice or Ptenf/f_cre/++ Het mice (KD) were obtained by mating Pten floxed/floxed mice and CAMKII-cre mice. DMSO or athyriol was intraperitoneally injected at 5 or 10 mg/kg for 2 weeks from the age of mice of 6 weeks, and a behavioral test was performed in 7 days after administration. Pten floxed/floxed mice were used as littermates of the same age as a normal control group.
A passive avoidance test was performed as described in Heo et al. (J. Ethnopharmacol. (2009) 122:20-27). After training the avoidance action by strong light three times a day, an electric foot shock (1 mA, 300 g test) was applied for 3 seconds in a dark room at the same time on the next day. After placing white mice in the same room in 24 hours after applying the shock, an avoidance response by light, that is, the time to move from a bright room to a dark room was measured, and it was dataficated for each group. Exactly after 24 hours of adaptation training, the mice were put back into the bright room and the latency time required to enter the dark room was measured for 720 seconds.

[3] = target: mTORC2 (Homo sapiens, UniProt P42345); assay: LocaTOR2 assay in A549 cells (FRB-AKT2 Ser473 phosphorylation); type: cell-based; parameters: endogenous in cells; host or cells: A549 (transfected only with the FKBP-recruiter and the FRB-AKT2 reporter); details: for pIC50: FIG. 9g
Text: mTORC2 is located in the cell membrane, endosome, ER and mitochondrial membrane. mTORC2 forms an mTORC2 complex as an activated form of ras (ras-GTP) operates as a scaffold in the cell membrane, whereas it forms an mTORC2 complex as mLST8 operates as a scaffold in the endosome. By this difference, the mTORC2 inhibitory effect of norathyriol may be shown differently depending on the subcellular compartment where mTORC2 is located. In order to investigate the mTORC2 inhibitory effect of norathyriol depending on the subcellular compartment location, in vivo LocaTOR2 assay was performed (Ebner et al. (2017) J. Cell Biol. 216:343-353). After introducing FKBP-recruiter selectively located in the membrane of the subcellular compartment and FRB^T2098L-AKT2 which is an mTORC2 substrate, AP21967 was treated for 40 minutes to induce binding between the FKBP-recruiter and FRB-AKT2, and FRB-AKT2 was moved to a specific subcellular compartment. In addition, the degree of phosphorylation of Ser473 of FRB-Akt by mTORC2 located in the site thereof was investigated by immunoblot analysis.

Row | FRB-AKT2 Ser473 phosphorylation, mitochondria ([3]; A549, Bcl-XL-FKBP recruiter, FIG. 9e) | FRB-AKT2 Ser473 phosphorylation, mTORC2 located in cell membrane ([3]; A549, KRas4B^C30-FKBP recruiter, AP21967, norathyriol at 30 μM and 60 μM, FIG. 9a) | FRB-AKT2 Ser473 phosphorylation, mTORC2 located in early endosome ([3]; A549, Rab5-FKBP recruiter, FIG. 9b) | FRB-AKT2 Ser473 phosphorylation, mTORC2 located in late endosome ([3]; A549, Rab7-FKBP recruiter, FIG. 9c) | FRB-AKT2 Ser473 phosphorylation, mTORC2 located in recycling endosome ([3]; A549, Rab11-FKBP recruiter, FIG. 9d) | FRB-AKT2 Ser473 phosphorylation, ER ([3]; A549, TcRb-FKBP recruiter, FIG. 9f) | pIC50 ([3]; mTORC2 located in cell membrane (plasma membrane), read-out: IC50, mTORC2, PM) | pIC50 ([3]; mTORC2 located in early endosome, read-out: IC50, mTORC2, EE) | pIC50 ([3]; mTORC2 located in late endosome, read-out: IC50, mTORC2, LE) | pIC50 ([3]; mTORC2 located in recycling endosome, read-out: IC50, mTORC2, RE) | SMILES | improvement of memory ability in Y-type maze test compared to vehicle control [1] | memory ability in passive avoidance test ([2]; 5 mg/kg) | memory ability in passive avoidance test, level relative to control group ([2]; 10 mg/kg, % of the control group)
1 | – | – | – | – | – | – | – | – | – | – | COc1cc(O)c2c(=O)c3cc(O)c(O)cc3oc2c1 [athyriol, 1,6,7-Trihydroxy-3-methoxy-9H-xanthen-9-on] | ≥ 25% | rather more excellent than the control group | 89%
2 | reduced | not reduced | reduced at a significant level | reduced at a significant level | reduced at a significant level | reduced | < 4.22 | > 4.52 | > 4.52 | 4.40 | O=c1c2cc(O)c(O)cc2oc2cc(O)cc(O)c12 [norathyriol, 1,3,6,7-tetrahydroxy-9H-xanthen-9-one] | – | – | –
